Molecular target: T1, Human M4 (Homo sapiens, UniProt P08173)
T1 construct: expressed in transfected cells; host or cells: CHO-K1 (ATCC), stably expressing hM4 and Gqi5
T1 sequence (P08173 1-479): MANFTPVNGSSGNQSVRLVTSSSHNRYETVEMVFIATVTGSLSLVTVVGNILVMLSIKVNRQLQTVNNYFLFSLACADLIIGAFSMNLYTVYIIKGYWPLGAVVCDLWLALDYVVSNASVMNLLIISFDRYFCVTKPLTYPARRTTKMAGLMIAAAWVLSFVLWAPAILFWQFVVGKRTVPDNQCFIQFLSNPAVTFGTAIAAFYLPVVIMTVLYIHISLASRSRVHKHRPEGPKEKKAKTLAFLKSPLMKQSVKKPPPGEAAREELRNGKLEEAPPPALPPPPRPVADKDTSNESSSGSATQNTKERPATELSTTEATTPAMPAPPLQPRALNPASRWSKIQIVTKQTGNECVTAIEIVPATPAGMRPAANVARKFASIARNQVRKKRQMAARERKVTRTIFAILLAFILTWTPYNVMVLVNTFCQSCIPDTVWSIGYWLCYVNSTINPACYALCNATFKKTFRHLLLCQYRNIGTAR
Experiment: mAChR M4 cell-based functional assay (calcium flux, potentiation of EC20 acetylcholine response in CHO-K1 hM4-Gqi5 cells)
Settings: for Emax at 30 µM: CHO-K1, % ACh maximum at 30 μM, human M4; for EC50: positive allosteric modulator mode, EC20 acetylcholine, CHO-K1 cells with human M4 and Gqi5
Description: Human M4 cDNA, along with the chimeric G protein Gqi5, were transfected into Chinese hamster ovary (CHO—K1) cells purchased from the American Type Culture Collection using Lipofectamine2000. hM4-Gqi5 cells were grown in Ham's F-12 medium containing 10% heat-inactivated fetal bovine serum (FBS), 20 mM HEPES, 50 μg/mL G418 sulfate, and 500 μg/mL Hygromycin B. rM4-Gqi5 cells were grown in DMEM containing 10% heat-inactivated FBS, 20 mM HEPES, 400 μg/mL G418 sulfate, and 500 μg/mL Hygromycin B.
For high throughput measurement of agonist-evoked increases in intracellular calcium, CHO—K1 cells stably expressing muscarinic receptors were plated in growth medium lacking G418 and hygromycin at 15,000 cells/20 μL/well in Greiner 384-well black-walled, tissue culture (TC)-treated, clear-bottom plates (VWR). Cells were incubated overnight at 37° C. and 5% CO2. The next day, cells were washed using an ELX 405 (BioTek) with assay buffer; the final volume was then aspirated to 20 μL. Next, 20 μL of a 2.3 μM stock of Fluo-4/acetoxymethyl ester (Invitrogen, Carlsbad, Calif.), prepared as a 2.3 mM stock in DMSO and mixed in a 1:1 ratio with 10% (w/v) Pluronic F-127 and diluted in assay buffer, was added to the wells and the cell plates were incubated for 50 min at 37° C. and 5% CO2. Dye was removed by washing with the ELX 405 and the final volume was aspirated to 20 μL. Compound master plates were formatted in an 11 point concentration-response curve (CRC) format (1:3 dilutions) in 100% DMSO with a starting concentration of 10 mM using a BRAVO liquid handler (Agilent). Test compound CRCs were then transferred to daughter plates (240 nL) using the Echo acoustic plate reformatter (Labcyte, Sunnyvale, Calif.) and then diluted into assay buffer (40 μL) to a 2× stock using a Thermo Fisher Combi (Thermo Fisher Scientific, Waltham, Mass.).
Calcium flux was measured using the Functional Drug Screening System (FDSS) 6000 or 7000 (Hamamatsu Corporation, Tokyo, Japan) as an increase in the fluorescent static ratio. Compounds were applied to cells (20 μL, 2×) using the automated system of the FDSS at 2-4 seconds into the protocol and the data were collected at 1 Hz. At 144 seconds, 10 μL of an EC20 concentration of the muscarinic receptor agonist acetylcholine was added (5×), followed by the addition of 12 μL of an EC80 concentration of acetylcholine at the 230 second time point (5×). Agonist activity was analyzed as a concentration-dependent increase in calcium mobilization upon compound addition. Positive allosteric modulator activity was analyzed as a concentration-dependent increase in the EC20 acetylcholine response. With the acetylcholine EC20 set as baseline, the test compound EC50 is determined as the concentration that produces an increase above baseline of 50% of the maximum increase in acetylcholine response elicted by the test compound. Antagonist activity was analyzed as a concentration-dependent decrease in the EC80 acetylcholine response. Concentration-response curves were generated using a four-parameter logistical equation in XLFit curve fitting software (IDBS, Bridgewater, N.J.) for Excel (Microsoft, Redmond, Wash.) or Prism (GraphPad Software, Inc., San Diego, Calif.).
Compounds were synthesized as described above. Activity (EC50 and Emax) was determined in the mAChR M4 cell-based functional assay as described above and the data are shown in Table 3. The compound numbers correspond to the compound numbers used in Examples 2-4 and Tables 1 and 2.

Structure (SMILES)	Emax at 30 µM [%]	EC50 [µM]
COc1cc(N2CC(NC(=O)c3ccc4nc(C)cc(C)c4c3)C2)c(Cl)cn1 [Compound 2, N-[1-(5-chloro-2-methoxy-4-pyridyl)azetidin-3-yl]-2,4-dimethyl-quinoline-6-carboxamide]	39.3	0.54
Cc1cc(C)c2cc(C(=O)NC3CN(c4cc(Cl)ncc4Cl)C3)ccc2n1 [Compound 5, N-[1-(2,5-dichloro-4-pyridyl)azetidin-3-yl]-2,4-dimethyl-quinoline-6-carboxamide]	52.5	0.19
Cc1cc(C)c2cc(C(=O)NCc3ccncc3)ccc2n1 [Compound 6, 2,4-dimethyl-N-(4-pyridylmethyl)quinoline-6-carboxamide]	26.4	> 10
Cc1cc(C)c2cc(C(=O)NCc3cccnc3)ccc2n1 [Compound 7, 2,4-dimethyl-N-(3-pyridylmethyl)quinoline-6-carboxamide]	32	> 10
Cc1cc(C)c2cc(C(=O)NC3CN(c4cc(Cl)nc(Cl)c4)C3)ccc2n1 [Compound 9, N-[1-(2,6-dichloro-4-pyridyl)azetidin-3-yl]-2,4-dimethyl-quinoline-6-carboxamide]	26.1	0.37
Cc1cc(C)c2cc(C(=O)NC3CN(c4nccc(Br)c4F)C3)ccc2n1 [Compound 13, N-[1-(4-bromo-3-fluoro-2-pyridyl)azetidin-3-yl]-2,4-dimethyl-quinoline-6-carboxamide]	59.5	1.6
COc1cc(N2CC(NC(=O)c3ccc4nnc(C)c(C)c4c3)C2)c(Cl)cn1 [Compound 14, N-[1-(5-chloro-2-methoxy-4-pyridyl)azetidin-3-yl]-3,4-dimethyl-cinnoline-6-carboxamide]	74.1	0.37
COc1ccc(CNC(=O)c2ccc3nnc(C)c(C)c3c2)cc1F [Compound 15, N-[(3-fluoro-4-methoxy-phenyl)methyl]-3,4-dimethyl-cinnoline-6-carboxamide]	72.3	1.89
Cc1nnc2ccc(C(=O)NC3CN(c4ncc(C(F)(F)F)cn4)C3)cc2c1C [Compound 17, 3,4-dimethyl-N-[1-[5-(trifluoromethyl)pyrimidin-2-yl]azetidin-3-yl]cinnoline-6-carboxamide]	76.7	> 10
Cc1nnc2ccc(C(=O)NC3CN(c4ncc(F)cn4)C3)cc2c1C [Compound 19, N-[1-(5-fluoropyrimidin-2-yl)azetidin-3-yl]-3,4-dimethyl-cinnoline-6-carboxamide]	75.4	> 10
Cc1nnc2ccc(C(=O)NC3CN(c4cnc(C(F)(F)F)cn4)C3)cc2c1C [Compound 21, 3,4-dimethyl-N-[1-[5-(trifluoromethyl)pyrazin-2-yl]azetidin-3-yl]cinnoline-6-carboxamide]	77.8	> 10
Cc1nnc2ccc(C(=O)NC3CN(c4cnc(C5CC5)cn4)C3)cc2c1C [Compound 22, N-[1-(5-cyclopropylpyrazin-2-yl)azetidin-3-yl]-3,4-dimethyl-cinnoline-6-carboxamide]	79.9	2.51
Cc1nnc2ccc(C(=O)NC3CN(c4ccc(F)cn4)C3)cc2c1C [Compound 24, N-[1-(5-fluoro-2-pyridyl)azetidin-3-yl]-3,4-dimethyl-cinnoline-6-carboxamide]	79.2	> 10
Cc1nnc2ccc(C(=O)NC3CN(c4ccc(C#N)cn4)C3)cc2c1C [Compound 25, N-[1-(5-cyano-2-pyridyl)azetidin-3-yl]-3,4-dimethyl-cinnoline-6-carboxamide]	80.6	1.03
Cc1nnc2ccc(C(=O)NC3CN(c4ncc(F)cc4Cl)C3)cc2c1C [Compound 26, N-[1-(3-chloro-5-fluoro-2-pyridyl)azetidin-3-yl]-3,4-dimethyl-cinnoline-6-carboxamide]	79.7	0.46

Second part, the compound after the results:

Emax at 30 µM [%]	EC50 [µM]	Structure (SMILES)
53.1	> 10	COc1ccc(CNC(=O)c2ccc3nc(C)cc(C)c3c2)cc1F [Compound 1, N-[(3-fluoro-4-methoxy-phenyl)methyl]-2,4-dimethyl-quinoline-6-carboxamide]
44.2	6.9	Cc1cc(C)c2cc(C(=O)NC3CN(c4ncc(C(F)(F)F)cn4)C3)ccc2n1 [Compound 3, 2,4-dimethyl-N-[1-[5-(trifluoromethyl)pyrimidin-2-yl]azetidin-3-yl]quinoline-6-carboxamide]
49.3	5.3	Cc1cc(C)c2cc(C(=O)NC3CN(c4ncc(OC(C)C)cn4)C3)ccc2n1 [Compound 4, N-[1-(5-isopropoxypyrimidin-2-yl)azetidin-3-yl]-2,4-dimethyl-quinoline-6-carboxamide]
41.1	1.7	Cc1cc(N2CC(NC(=O)c3ccc4nc(C)cc(C)c4c3)C2)cc(OC(F)F)n1 [Compound 8, N-[1-[2-(difluoromethoxy)-6-methyl-4-pyridyl]azetidin-3-yl]-2,4-dimethyl-quinoline-6-carboxamide]
55.5	1.4	Cc1cc(C)c2cc(C(=O)NC3CN(c4ccnc(OC(F)F)c4)C3)ccc2n1 [Compound 10, N-[1-[2-(difluoromethoxy)-4-pyridyl]azetidin-3-yl]-2,4-dimethyl-quinoline-6-carboxamide]
27.5	2.2	Cc1cc(C)c2cc(C(=O)NC3CN(c4nccc(Br)c4Cl)C3)ccc2n1 [Compound 11, N-[1-(4-bromo-3-chloro-2-pyridyl)azetidin-3-yl]-2,4-dimethyl-quinoline-6-carboxamide]
65.4	0.17	Cc1cc(C)c2cc(C(=O)NC3CN(c4ccnc(F)c4F)C3)ccc2n1 [Compound 12, N-[1-(2,3-difluoro-4-pyridyl)azetidin-3-yl]-2,4-dimethyl-quinoline-6-carboxamide]
71.2	> 10	Cc1nnc2ccc(C(=O)NCc3ccc(C(C)(C)O)cc3)cc2c1C [Compound 16, N-[[4-(1-hydroxy-1-methyl-ethyl)phenyl]methyl]-3,4-dimethyl-cinnoline-6-carboxamide]
81.7	0.74	Cc1nnc2ccc(C(=O)NC3CN(c4ccc(F)c(F)c4)C3)cc2c1C [Compound 18, N-[1-(3,4-difluorophenyl)azetidin-3-yl]-3,4-dimethyl-cinnoline-6-carboxamide]
87.8	3.2	Cc1nnc2ccc(C(=O)NC3CN(c4ncc(OC(C)C)cn4)C3)cc2c1C [Compound 20, N-[1-(5-isopropoxypyrimidin-2-yl)azetidin-3-yl]-3,4-dimethyl-cinnoline-6-carboxamide]
73.4	1.27	Cc1nnc2ccc(C(=O)NC3CN(c4ccc(Cl)cn4)C3)cc2c1C [Compound 23, N-[1-(5-chloro-2-pyridyl)azetidin-3-yl]-3,4-dimethyl-cinnoline-6-carboxamide]

Source: patent US10934276B2, “Positive allosteric modulators of the muscarinic acetylcholine receptor M4” (Vanderbilt University, priority 2016, dated 2021)
